Activity calls are given as the source filed them. The calls are words filed in the database; no cut-off is given here.
What was measured:
[1] = Inhibition of fMLF/CB-induced superoxide anion generation in human neutrophil at 10 uM relative to control; assay type: functional
[2] = Inhibition of fMLF/CB-induced superoxide anion generation in human neutrophil; assay type: functional, tissue-based
Neutrophil = experiment: Inhibition of elastase release in fMLF/CB-stimulated human neutrophil at 10 µM

Structure (SMILES)	IC50 [2]	inhibition at 10 µM [1]	inhibition (Neutrophil)
COc1ccc(Oc2cc(=O)c3c(OC)cccc3o2)cc1OC	> 10 µM	12.8%	inactive
COc1cc(OC)cc(Oc2cc(=O)c3c(OC)cccc3o2)c1	> 10 µM	-0.4%	inactive
COc1cc(OC)c2c(=O)cc(Oc3ccccc3OC)oc2c1	> 10 µM	2.5%	inactive
COc1ccc2c(=O)cc(Oc3ccc(O)c(OC)c3)oc2c1	5.2 µM	71.3%	inactive
COc1cc(OC)c2c(=O)cc(Oc3ccc(OC)c(OC)c3)oc2c1	> 10 µM	7.8%	inactive
COc1ccc2c(=O)cc(Oc3ccccc3OC)oc2c1	> 10 µM	3.8%	inactive
O=c1cc(N2CCOCC2)oc2c(-c3ccccc3)cccc12 [LY-294002]	1.3 µM	93.4%	
COc1cc(OC)cc(Oc2cc(=O)c3c(OC)cc(OC)cc3o2)c1	> 10 µM	27.5%	inactive
COc1cccc(Oc2cc(=O)c3c(OC)cc(OC)cc3o2)c1	> 10 µM	22.4%	inactive

Further lines, with some results ahead:

IC50 [2]	Structure (SMILES)	inhibition at 10 µM [1]	inhibition (Neutrophil)
7 µM	COc1cc(OC)c2c(=O)cc(Sc3cccc(F)c3)oc2c1	61%	inactive
> 10 µM	COc1cccc(Oc2cc(=O)c3ccc(OC)cc3o2)c1	46.8%	inactive
5 µM	COc1ccc2c(=O)cc(Sc3cccc(F)c3)oc2c1	70.9%	inactive
> 10 µM	COc1ccc2oc(Sc3cccc(F)c3)cc(=O)c2c1	17.3%	inactive
> 10 µM	COc1cc2oc(Sc3cccc(F)c3)cc(=O)c2c(OC)c1OC	47.5%	inactive
> 10 µM	COc1cccc2oc(Sc3cccc(F)c3)cc(=O)c12	10.6%	inactive
> 10 µM	COc1ccc2c(=O)cc(Oc3cccc(O)c3)oc2c1	6.9%	inactive

Source: ChEMBL document CHEMBL4706673, “The study on structure-activity relationship between chromone derivatives and inhibition of superoxide anion generating from human neutrophils” (Bioorg Med Chem Lett, 2021)
